{"source": "patent US20230053473A1", "about": "“ENHANCING EXPRESSION OF LINE-1 ENCODED ORF2P FOR CANCER THERAPEUTICS” (The Johns Hopkins University, priority 2019, published 2023)", "key": {"[1]": {"target": "PKR (Homo sapiens, UniProt P19525)", "sequence (P19525 whole entry)": "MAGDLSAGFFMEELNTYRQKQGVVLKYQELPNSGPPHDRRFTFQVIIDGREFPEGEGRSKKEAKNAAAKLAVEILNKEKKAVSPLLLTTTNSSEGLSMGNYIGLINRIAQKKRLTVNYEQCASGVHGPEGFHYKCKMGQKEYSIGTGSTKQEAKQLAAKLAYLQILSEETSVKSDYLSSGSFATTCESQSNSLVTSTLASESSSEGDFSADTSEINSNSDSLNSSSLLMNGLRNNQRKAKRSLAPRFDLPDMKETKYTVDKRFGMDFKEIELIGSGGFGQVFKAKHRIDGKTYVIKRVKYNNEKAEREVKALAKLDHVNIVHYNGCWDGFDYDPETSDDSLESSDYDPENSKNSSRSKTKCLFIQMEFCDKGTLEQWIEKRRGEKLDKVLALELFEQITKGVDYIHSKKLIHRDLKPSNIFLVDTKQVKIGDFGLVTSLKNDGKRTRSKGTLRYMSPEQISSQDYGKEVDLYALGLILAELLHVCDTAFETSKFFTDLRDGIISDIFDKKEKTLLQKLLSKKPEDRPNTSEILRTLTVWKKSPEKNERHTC", "conditions": "in vitro, cited from earlier work"}, "[2]": {"system": "RPA2", "test": "Western blot of chromatin-bound RPA2", "type": "cell-based", "conditions": "RPE, chromatin-bound protein fractions; 1 μM", "procedure": "FIGS. 6A-6G. LINE-1 activity induces replication stress. 6A) Median count of sgRNAs targeting replication stress signaling genes ATRIP and the 9-1-1 complex (HUS1 and RAD1) during the screen. Error bars indicate 95% confidence intervals. 6B) Clonogenic assay of LINE-1(+) RPE cells (induced with 1 μg/ml doxycycline) with CRISPR-knockout of ATRIP compared to non-targeting-control (NTC). Error bars indicate SEM, n=3 independent experiments. P value is calculated with an unpaired two-sided T test. 6C) Clonogenic assay of LINE-1(+) RPE cells (induced with 1 μg/ml doxycycline) with drug inhibition of ATR kinase by 1 μM VE-821 compared to vehicle (DMSO). Error bars indicate SEM, n=3 independent experiments. P value is calculated with an unpaired two-sided T test. 6D) Western blot of RPA2 occupancy on chromatin induced by LINE-1 compared to luciferase control after 72 hours of expression in RPE. Chromatin-bound protein lysates were used. […] Relative signal intensity for n=2 independent experiments ±SEM is quantified. […] Statistical significance is assessed by ANOVA (p=0.0007). […]\nCells were lysed in RIPA buffer with protease/phosphatase inhibitor (cat#5872, Cell Signaling Technology, Danvers, Mass.) or Laemmli Sample Buffer (cat#1610747, Biorad, Hercules, Calif.) by sonication. […] Quantifications were carried out using Image Studio v4.0. […]"}, "[3]": {"system": "FANCD2", "test": "Western blot of FANCD2 monoubiquitination", "type": "cell-based", "conditions": "NTC-treated cells; 24-hour treatment with 1 μg/ml", "description": "FIGS. 5A-5H. The Fanconi Anemia (FA) pathway is essential in p53-deficient cells. 5A) Network plot of 75 DNA repair genes identified in the screen. Edges indicate known physical interactions. This network is enriched for Fanconi anemia genes (blue nodes). 5B) Model of FA complexes responding to a DNA lesion (vertical line) encountered by a replication fork (blue line=genomic DNA; green line=nascent DNA). Genes are color coded based on the performance of their knockouts in the screen. 5C) Western blot of FANCD2 response to 24-hour treatment with 1 μg/ml mitomycin C (MMC). Cells are treated with FA member sgRNAs or non-targeting-control (NTC). FANCD2 monoubiquitination is assessed as the ratio of FANCD2-L (long) to FANCD2-S (short) band intensities (relative L:S ratio). The ratio is graphed relative to NTC, MMC-treated cells. nd=not determined. Uncropped blot is shown in the Source Data. 5D) Clonogenic growth assay of LINE-1(+) RPE cells with sgRNAs targeting the same genes as in (C). n=3 independent experiments. P value calculated with a one-sided T test. […] Quantification to the right of n=2 independent experiments ±SEM. […] Quantification below of n=2 independent experiments ±SEM. Effect of wildtype LINE-1 is statistically significant as assessed by ANOVA (p=0.0143). […] Right, quantification of FANCD2 foci in EdU+HeLa cells. […] 5H) Left, γH2A.X and 53BP1 focus quantification in EdU+TP53^KD cells. […]"}, "[4]": {"system": "LINE-1(+) RPE cells", "test": "Clonogenic growth assay, LINE-1(+) cells", "type": "cell-based", "procedure": "(§1) Viability was determined by clonogenic growth or CellTiter-Glo assay (Promega, Madison, Wis.). WT RPE were assessed by clonogenic growth by transfecting 1e5 cells with 2 μg eGFP (pDA083) or 3 μg LINE-1 (pDA077) plasmid to achieve equimolar ratios. Cells were split to 10 cm growth dishes and selected with G418 24 hours later. In Tet-On assays, 500 cells were plated and doxycycline was added to activate transgene expression. For MMC sensitivity experiments, cells were treated with 100 pM, 1 nM, 10 nM, and 100 nM for 24 hours on day 2 after plating. In VE-821 sensitivity, cells were treated with 1 μM drug or DMSO vehicle throughout the duration of the experiment. For assays in CRISPR knockout cells, knockout cell pools were generated by infecting TP53^KD Tet-On RPE cells with lentivirus encoding either non-targeting control or a gene targeting guide and selecting with puromycin for 1 week. For all assays, after 10-14 days of L1 or control expression, colonies were washed with PBS and fixed (6% gluteraldehyde, 0.5% crystal violet) for 10 minutes. Plates were rinsed in water and air dried, then imaged on a flatbed scanner. Colonies with >50 cells were counted."}, "[5]": {"system": "RPE cells", "type": "cell-based", "description": "(§2) FIGS. 13A and 13B. […] (Day 1 and 3 show little effect. The effect is sustained at day 10. Higher doses of the drug are toxic). The cells used are RPE cells that have a doxycycline (Dox) controlled LINE-1 expression construct. (13A.) Western blot showing ORF2p, ORF1p, and tubulin levels on day 5. Addition of Dox induces LINE-1 expression. Addition of PKRi enhances relative ORF2p expression levels. (13B.) Quantification of ORF2p expression (relative to tubulin) by Western blot as a function PKRi inhibitor dose on different days of the experiment.\n(§3) (Day 1 and 3 show little effect. The effect is sustained at day 10. Higher doses of the drug are toxic.) The finding is significant as proof-of-principle that specific cellular pathways are involved in uncoupling the expression of LINE-1 encoded proteins. As such increasing ORF2p intracellularly in tumors can cause tumor cell death."}, "[6]": {"system": "ORF2p", "test": "Western blot of ORF2p accumulation in RPE cells with doxycycline-controlled LINE-1 expression construct", "type": "cell-based, human", "description": "as §2\nCells were lysed in RIPA buffer with protease/phosphatase inhibitor (cat#5872, Cell Signaling Technology, Danvers, Mass.) or Laemmli Sample Buffer (cat#1610747, Biorad, Hercules, Calif.) by sonication. PAGE was carried out with manufacturer-recommended buffers on 4-20% or 7.5% Mini TGX Gels (Biorad), NuPAGE 4-12% BisTris gels, or NuPAGE 3-8% Tris-Acetate gels (Thermo). Semi-dry transfers were carried out for Biorad gels or NuPAGE BisTris gels at 2.5 A for 5-15 minutes using the Trans-Blot-Turbo (Biorad). Wet transfers were carried out for Tris-Acetate gels at 30V overnight. All blocking was performed with Odyssey Blocking Buffer (Licor). Primary antibodies were incubated with membranes overnight at 4C, then infrared-conjugated secondaries (Licor) were added 1:10,000 and imaged on a Licor Odyssey Scanner. Quantifications were carried out using Image Studio v4.0. Blots were stripped with Reblot Plus Strong Solution (Millipore Sigma).\nas §3"}, "[7]": {"system": "luciferase(+) cells", "test": "Clonogenic growth assay, luciferase(+) control cells", "type": "cell-based", "procedure": "as §1"}, "[8]": {"system": "Tet-On TP53KD cells expressing LINE-1", "test": "qRT-PCR of LINE-1-induced IFN response with nucleoside reverse transcriptase inhibitors", "type": "cell-based", "conditions": "5 μM for 72 hours", "procedure": "250,000 Tet-On TP53^KD cells expressing Luciferase or LINE-1 were plated in T25 flasks with 1 ng/mL doxycycline added and treated with 5 μM zalcitabine (ddC) or 5 μM didanosine (ddI) for 72 hours. Cells were lysed and RNA were extracted using Quick-RNA MicroPrep kit (Zymo Research).\ncDNA was generated using the iScript kit (Biorad, Hercules, Calif.) following RNA extraction using the Quick-RNA Microprep kit (Zymo). Primers were designed using Primer3 and tested against cDNA to ensure single bands were generated in the PCR. Real-time PCR was performed for 40 cycles (98C×15 seconds, 60C×30 seconds) using SSOAdvanced 2X Master mix (Biorad) on the MyIQ cycler (Biorad). Fold-change expression was determined by the 2^−ΔΔCt method."}, "[9]": {"system": "TP53KD cells", "test": "γH2A.X and 53BP1 nuclear foci quantification in TP53KD cells", "type": "cell-based", "conditions": "data not shown", "procedure": "(§4) We used either Tet-On TP53^KD cells expressing Luciferase or LINE-1 or HeLa cells transfected with doxycycline-inducible LINE-1 plasmids (pDA007, pDA025, pDA027, pDA033, pDA019) and stably-selected with puromycin for 1-2 weeks. Positive controls were treated with either 6 mM hydroxyurea for 4 hours or 200 ng/mL doxorubicin for 2 hours. 100,000 cells were plated on cover slips and treated with 1000 ng/ml doxycycline for 72 hours. EdU was added for 2 hours and cells were pre-treated with 0.5% Triton X-100 for 5 min, fixed with 3.7% paraformaldehyde for 10 minutes, then permeabilized with 0.5% NP-40 for 10 minutes. EdU Click-iT reaction (ThermoFisher) was performed following manufacturer's instructions. Slides were blocked (1% BSA/PBS-Glycine, 30 minutes) and incubated with polyclonal rabbit FANCD2 (1:1000, Novus Biologicals), rabbit 53BP1 (1:500, Novus Biologicals), or mouse γH2A.X (1:1000, Millipore) for 1 hour at room temperature and then anti-rabbit Alexa Fluor 488 for FANCD2 (1:200, ThermoFisher) and anti-rabbit Alexa Fluor 488 (1:2000, ThermoFisher) and anti-mouse Alexa Fluor 555 (1:2000, ThermoFisher) for 53BP1 and γH2A.X, respectively. Slides were imaged at low magnification with the same equipment as described above with key methodological differences. […] Foci were quantified using a previously published method in MATLAB. […]"}, "[10]": {"system": "HeLa cells", "test": "FANCD2 nuclear foci quantification in EdU-labeled HeLa cells", "type": "cell-based", "conditions": "S phase (EdU+) cells; p=1.7×10^−8", "procedure": "as §4"}}, "data": [{"molecule": "Nc1ncc2[nH]cnc2n1", "note": "[2-AP, 2-aminopurine]", "values": [{"measurement": "potency relative to C16", "setting": "[1]; competes for ATP at the ATP binding site of PKR", "result": "less potent than C16"}]}, {"molecule": "CO[C@@]12[C@H](COC(N)=O)C3=C(C(=O)C(C)=C(N)C3=O)N1C[C@@H]1N[C@@H]12", "note": "[MMC, mitomycin C]", "values": [{"measurement": "chromatin-bound RPA2", "setting": "[2]", "result": "induced chromatin-bound RPA2"}, {"measurement": "FANCD2 monoubiquitination (FANCD2-Ub)", "setting": "[3]", "result": "induced FANCD2-Ub"}, {"measurement": "sensitivity of LINE-1(+) cells compared to luciferase-expressing controls", "setting": "[4]; dose-response clonogenic assay, 24 hours treatment", "result": 1.9, "unit": "fold"}]}, {"molecule": "O=C1Nc2ccc3ncsc3c2C1=Cc1cnc[nH]1", "note": "[PKRi, 6,8-dihydro-8-(1H-imidazol-5-ylmethylene)-7H-pyrrolo[2,3-g]benzothiazol-7-one]", "values": [{"measurement": "toxicity", "setting": "[5]", "result": "toxic"}, {"measurement": "accumulation of ORF2p (relative to ORF1p and tubulin)", "setting": "[6]; 0.1 uM, by day 6 of treatment", "result": "increases the accumulation of ORF2p"}, {"measurement": "effect on ORF2p accumulation", "setting": "[6]; Day 1 and 3", "result": "little effect"}, {"measurement": "accumulation of ORF2p (relative to ORF1p and tubulin)", "setting": "[6]; by day 5 of treatment, Dox-induced RPE cells", "result": "dose-dependent increases the accumulation of ORF2p"}, {"measurement": "effect on ORF2p accumulation", "setting": "[6]; day 10", "result": "sustained"}, {"measurement": "IC50", "setting": "[1]", "result": "~200", "unit": "nM"}]}, {"molecule": "CS(=O)(=O)c1ccc(-c2cnc(N)c(C(=O)Nc3ccccc3)n2)cc1", "note": "[VE-821]", "values": [{"measurement": "effect on viability in luciferase(+) cells", "setting": "[7]; same dose as in LINE-1(+) cells, data not shown", "result": "no effect on viability"}, {"measurement": "sensitization of cells to LINE-1 (ATR inhibition)", "setting": "[4]; 1 μM vs DMSO vehicle", "result": "sensitized cells to LINE-1"}]}, {"molecule": "O=c1[nH]cnc2c1ncn2[C@H]1CC[C@@H](CO)O1", "note": "[didanosine]", "values": [{"measurement": "effect on LINE-1-induced IFN response", "setting": "[8]", "result": "attenuated the IFN response"}]}, {"molecule": "COc1cccc2c1C(=O)c1c(O)c3c(c(O)c1C2=O)C[C@@](O)(C(=O)CO)C[C@@H]3O[C@H]1C[C@H](N)[C@H](O)[C@H](C)O1", "note": "[doxorubicin]", "values": [{"measurement": "DNA damage foci (γH2A.X and 53BP1) over the cell cycle", "setting": "[9]", "result": "continue to accumulate"}]}, {"molecule": "NC(=O)NO", "note": "[hydroxyurea]", "values": [{"measurement": "number of FANCD2 foci", "setting": "[10]", "result": "increased the number of FANCD2 foci"}]}, {"molecule": "Nc1ccn([C@H]2CC[C@@H](CO)O2)c(=O)n1", "note": "[zalcitabine]", "values": [{"measurement": "effect on LINE-1-induced IFN response", "setting": "[8]", "result": "attenuated the IFN response"}]}, {"molecule": "pladienolide B [PLA-B]", "values": [{"measurement": "reduction of luciferase(+) clonogenic growth", "setting": "[7]; same PLA-B dose as for LINE-1(+) cells", "result": 6.8, "unit": "%"}, {"measurement": "increased sensitivity of LINE-1(+) vs luciferase(+) cells", "setting": "[4]; P=0.044", "result": 4.1, "unit": "fold"}, {"measurement": "fewer colonies of LINE-1(+) cells", "setting": "[4]; same PLA-B dose as for luciferase(+) cells", "result": 27.8, "unit": "%"}]}]}
